In brackets after ≈: the same amount, converted by molar mass. Like-named read-outs stand apart in the source and are kept apart here.
Columns and labels:
[1] = tested on: S. pneumoniae; test: E-test MIC, children with URTI, Brazil; type: cell-based, Streptococcus pneumoniae
[2] = tested on: Nocardia spp.; test: E-test on Mueller Hinton agar, 81 clinical isolates; type: cell-based; settings: Nocardia
[3] = tested on: S. pneumoniae; test: PROTEKT Italy, NCCLS microdilution; type: cell-based, Streptococcus pneumoniae
[4] = tested on: S. -pneumoniae; test: Sensitivity of CAP pathogens with/without antibiotic pretreatment; type: cell-based, Streptococcus pneumoniae
[5] = tested on: S. pyogenes; test: as above; type: cell-based, Streptococcus pyogenes; settings: Abs. 4
[6] = tested on: H. influenzae; test: as above; type: cell-based, Haemophilus influenzae
[7] = tested on: Other Haemophilus sp.; test: as above; type: cell-based
[8] = tested on: E. coli; test: as above; type: cell-based, Escherichia coli
[9] = tested on: Kl. pneumoniae; test: as above; type: cell-based, Klebsiella pneumoniae
[10] = tested on: Other Enterobacteriacae; test: as above; type: cell-based, Enterobacteriaceae
[11] = tested on: P. aeruginosa; test: as above; type: cell-based, Pseudomonas aeruginosa; settings: Abs. 3
[12] = tested on: Other non-fermenting bacteria; test: as above; type: cell-based
[13] = tested on: Enterococcus sp; test: as above; type: cell-based
[14] = tested on: S. aureus; test: as above; type: cell-based, Staphylococcus aureus
[15] = tested on: Staph. coaq (−); test: as above; type: cell-based, coagulase-negative Staphylococcus
[16] = tested on: Total pathogens in community acquired pneumonia; test: as above; type: cell-based
[17] = tested on: pathogens in community acquired pneumonia of different severity; test: Sensitivity of CAP pathogens by Fine severity group; type: cell-based
[18] = tested on: S. pneumoniae; test: Broth microdilution; type: cell-based, Streptococcus pneumoniae; settings: 275 isolates
[19] = tested on: Pseudomonas putida clinical isolates; test: Agar dilution MIC; type: cell-based
[20] = tested on: viridans group streptococci (VGS); test: MIC; type: cell-based
[21] = tested on: S. pneumoniae (SPN); test: NCCLS broth microdilution, fluoroquinolones 1999–2004; type: cell-based, Streptococcus pneumoniae; settings: Streptococcus pneumoniae, read-out: MIC90 during the six years, 1999–2004
[22] = tested on: Acinetobacter; test: Disk diffusion; type: cell-based; settings: 37 isolates selected as resistant to beta-lactams
[23] = tested on: MSSA; test: Agar dilution MIC; type: cell-based, Staphylococcus aureus
[24] = tested on: MRSA; test: Agar dilution MIC; type: cell-based, Staphylococcus aureus
[25] = tested on: C. albicans; test: Antifungal susceptibility; type: cell-based, Candida albicans
[26] = tested on: C. parapsilosis; test: Antifungal susceptibility; type: cell-based, Candida parapsilosis
[27] = tested on: Shigella spp.; test: Disk diffusion, stool isolates Tehran; type: cell-based; settings: 96 isolates
[28] = tested on: S. pneumoniae; type: cell-based, Streptococcus pneumoniae
[29] = tested on: N.gonorrhoeae; test: microbe, parasite or virus in culture; type: cell-based; settings: Neisseria gonorrhoeae
[30] = tested on: Salmonella enterica; test: VITEK, NCCLS microdilution and disc diffusion of quinolones; type: cell-based
[31] = tested on: glycopeptide intermediate Staphylococcus species (GISS); test: VITEK II, screening plate and E test, blood isolates; type: cell-based, coagulase-negative Staphylococci
[32] = Phase 3 trial, complicated intra-abdominal infections; type: in vivo, human
[33] = tested on: viridans group streptococci (VgS) and Streptococcus bovis; test: Broth microdilution and disk diffusion; type: cell-based; settings: nine species

CC1(C)S[C@@H]2[C@H](NC(=O)[C@H](N)c3ccc(O)cc3)C(=O)N2[C@H]1C(=O)O [amoxicillin]
resistant (R) ([1]; 137 isolates): 0.7%
MIC ([1]; Streptococcus pneumoniae, read-out: MIC of the one resistant isolate): 3 µg/mL
MIC50 [2]: 12 µg/mL (≈ 32.8 µM)
MIC90 [2]: 32 µg/mL (≈ 87.6 µM)
susceptible ([3]; year 1: 2002): 93.8%
susceptible ([3]; year 2: 2003): 96.6%
% of sensitive strains ([4]; after antibiotic pretreatment, Abs. 3): 66.7%
% of sensitive strains ([4]; without antibiotic pretreatment, Abs. 13): 92.3%
% of sensitive strains ([5]; after pretreatment): 75.0%
% of sensitive strains ([5]; without pretreatment): 100.0%
% of sensitive strains ([6]; after pretreatment, Abs. 10): 80.0%
% of sensitive strains ([6]; without pretreatment, Abs. 26): 88.5%
% of sensitive strains ([7]; after pretreatment, Abs. 11): 90.9%
% of sensitive strains ([7]; without pretreatment, Abs. 21): 90.5%
% of sensitive strains ([8]; after pretreatment, Abs. 1): 100.0%
% of sensitive strains ([8]; without pretreatment, Abs. 5): 60.0%
% of sensitive strains ([9]; after pretreatment, Abs. 5): 0.0%
% of sensitive strains ([9]; without pretreatment, Abs. 4): 0.0%
% of sensitive strains ([10]; after pretreatment, Abs. 5): 20.0%
% of sensitive strains ([10]; without pretreatment, Abs. 2): 50.0%
% of sensitive strains ([11]; after pretreatment): 0.0%
% of sensitive strains ([11]; without pretreatment): 0.0%
% of sensitive strains ([12]; after pretreatment, Abs. 0): 0.0%
% of sensitive strains ([12]; without pretreatment, Abs. 1): 0.0%
% of sensitive strains ([13]; after pretreatment, Abs. 0): 0.0%
% of sensitive strains ([13]; without pretreatment, Abs. 1): 100.0%
% of sensitive strains ([14]; after pretreatment, Abs. 4): 0.0%
% of sensitive strains ([14]; without pretreatment, Abs. 11): 9.1%
% of sensitive strains ([15]; after pretreatment, Abs. 2): 50.0%
% of sensitive strains ([15]; without pretreatment, Abs. 4): 50.0%
% of sensitive strains ([16]; after pretreatment, Abs. 48): 54.2%
% of sensitive strains ([16]; without pretreatment, Abs. 95): 69.5%
sensitivity, total strains ([17]; higher severity group (Fine scores >70)): 55,8%
sensitivity, total strains ([17]; lower severity group (Fine scores <70)): 64.8%
Susceptibility [18]: 99.3%

COc1c(N2CCNC(C)C2)c(F)cc2c(=O)c(C(=O)O)cn(C3CC3)c12 (centres unmarked) [gatifloxacin]
MIC [19]: > 128 µg/mL
MIC50 [20]: 0.25 µg/mL (≈ 0.666 µM)
MIC90 [20]: 0.25 µg/mL (≈ 0.666 µM)
MIC90 [21]: 0.5 µg/mL (≈ 1.33 µM)
resistant isolates [22]: 83.8%
MIC50 ([23]; Staphylococcus aureus, MSSA): < 0.0625 µg/mL
MIC90 ([23]; Staphylococcus aureus, MSSA): < 0.125 µg/mL
MIC range ([23]; n = 200): 0.0625 to 4 µg/mL (≈ 0.166 to 10.7 µM)
MIC50 ([24]; Staphylococcus aureus, MRSA): < 4 µg/mL
MIC90 ([24]; Staphylococcus aureus, MRSA): < 4 µg/mL
MIC range ([24]; n = 50): 4 µg/mL (≈ 10.7 µM)

C[C@H]1COc2c(C3(N)CC3)c(F)cc3c(=O)c(C(=O)O)cn1c23 [pazufloxacin]
MIC [19]: > 128 µg/mL

Nc1nc(=O)[nH]cc1F [flucitozine]
susceptibility of all tested strains [25]: susceptible

Clc1ccc(COC(Cn2ccnc2)c2ccc(Cl)cc2Cl)c(Cl)c1 (centres unmarked) [miconazole]
susceptibility of all tested strains [25]: susceptible
resistant and intermediate susceptibility [26]: 50%

CC1COc2c(N3CCN(C)CC3)c(F)cc3c(=O)c(C(=O)O)cn1c23 (centres unmarked) [ofloxacin]
sensitive [27]: 100%
resistant [28]: 0%
MIC ([29]; strain 76mu6): 8 µg/mL (≈ 22.1 µM)
MIC ([29]; strain 76mu10): 8 µg/mL (≈ 22.1 µM)
MIC ([29]; strain 92mu6): 4 µg/mL (≈ 11.1 µM)
MIC ([29]; strain 92mu13): 4 µg/mL (≈ 11.1 µM)
MIC ([30]; read-out: NCCLS MIC, 37 NAL-R strains): 0.25 to 1 µg/mL (≈ 0.692 to 2.77 µM)
MIC ([30]; read-out: NCCLS MIC, NAL-S strains): ≤ 0.06 µg/mL
resistance rate ([31]; 73 GISS strains): 84,9%
resistant isolates [22]: 43.2%

imipenem/cilastatin [IMI/CIS]
clinical cure rate at TOC, ME group ([32]; TGC 100 mg then 50 mg q12h iv, IMI/CIS 500/500 mg q6h, 5–14 days): 82.4%
nausea ([32]; adverse events): 24.8%
vomiting ([32]; adverse events): 19.4%
clinical cure rate at TOC, m-mITT cohort ([32]; same regimens): 78.2%

quinupristin/dalfopristin
MIC50 ([20]; 107 strains, 1990–2003): 0.5 µg/mL
MIC90 ([20]; 107 strains, 1990–2003): 2 µg/mL
sensitivity of all GISS strains [31]: all GISS strains demonstrated sensitivity
% S, range between species [33]: 99.0 – 100.0%

Reference: article PMC7129073 (Clinical Microbiology and Infection, 2015)
